Experiments:
Assay type in all cases: in vivo
Conditions in all cases: 200 L/ha water, isoxaben 40, flufenacet 200, diflufenican 100 g ai/ha, observed mean
[1] = tested on: STEME (Stellaria media (L.) Vill., common chickweed); experiment: Trial 1: small plot field experiment in winter wheat, foliar applied, visual % control of STEME
Text: (§1) Results in Tables 1 and 2 are for foliar applied compositions in small plot research experiments to evaluate the efficacy of the compositions in winter wheat. Application water volume was 200 liters per hectare (L/ha). Crop stage at time of application was 12-13. The values reported are means. […] Colby's equation was used to determine the herbicidal effects expected from the mixtures (Colby, S. R. Calculation of the synergistic and antagonistic response of herbicide combinations. Weeds 1967, 15, 20-22.). More specifically, the following equation was used to calculate the expected activity of mixtures containing two active ingredients, A and B:
(§2) A=observed efficacy of active ingredient A at the same concentration as used in the mixture;
(§3) B=observed efficacy of active ingredient B (or combination B) at the same concentration as used in the mixture.

[2] = tested on: BRSNW (Brassica napus, winter oilseed rape); experiment: Trial 2: small plot field experiment in winter wheat, foliar applied, visual % control of BRSNW
Text: as §1, §2, §3

[3] = tested on: BRSNW (Brassica napus, winter oilseed rape); experiment: Trial 1: small plot field experiment in winter wheat, foliar applied, visual % control of BRSNW
Text: as §1, §2, §3

[4] = tested on: GERDI (Geranium dissectum, cutleaf geranium); experiment: Trial 1: small plot field experiment in winter wheat, foliar applied, visual % control of GERDI
Text: as §1, §2, §3

Structure (SMILES): CC(C)N(C(=O)COc1nnc(C(F)(F)F)s1)c1ccc(F)cc1 [flufenacet, N-(4-fluorophenyl)-N-(1-methylethyl)-2-[[5-(trifluoromethyl)-1,3,4-thiadiazol-2-yl]oxy]acetamide]
- VISUAL % CONTROL OF STEME 28 DAT, Ob [1]: 0 e %
- VISUAL % CONTROL OF BRSNW 13 DAT, Ob [2]: 43 cd %
- VISUAL % CONTROL OF BRSNW 25 DAT, Ob [2]: 55 b %
- VISUAL % CONTROL OF BRSNW 28 DAT, Ob [3]: 0 d %
- VISUAL % CONTROL OF GERDI 28 DAT, Ob [4]: 0 d %

Structure (SMILES): CCC(C)(CC)c1cc(NC(=O)c2c(OC)cccc2OC)on1 [isoxaben, N-[3-(1-ethyl-1-methylpropyl)isoxazol-5-yl]-2,6-dimethoxybenzamide]
- VISUAL % CONTROL OF STEME 28 DAT, Ob [1]: 0 e %
- VISUAL % CONTROL OF BRSNW 13 DAT, Ob [2]: 22 de %
- VISUAL % CONTROL OF BRSNW 25 DAT, Ob [2]: 23 cd %
- VISUAL % CONTROL OF BRSNW 28 DAT, Ob [3]: 0 d %
- VISUAL % CONTROL OF GERDI 28 DAT, Ob [4]: 0 d %
